Assay results: patent US20260347403A1, “FUNGICIDAL COMPOUND” (priority 2022, published 2026)
Read-outs that look alike come from different tables or passages of the source. Numbered stars: 1 amine (or outer) side, 2 acyl side, 3 side chain; on linkers, the order of the positions; unused ones are H or OH. Bridge positions count the residues as written; N and C are the ends. Square brackets hold non-standard residues; d marks the D form. Peptide text beside a SMILES is read from it. * marks the point of attachment. Tridecanoyl(12-Me) = CC(C)CCCCCCCCCCC(=O)*; X1 = NC(=O)CC(O)C(N[*:1])C(=O)[*:2]; NMeF = CN[CH](Cc1ccccc1)C(=O)O; NMeN = CN[CH](CC(N)=O)C(=O)O

What was measured:
Zymoseptoria tritici = assay: Leaf painting assay in wheat seedling, Zymoseptoria tritici; type: in vivo, Zymoseptoria tritici on wheat (variety Riband); settings: for % reduction of fungal growth: middle segment
Protocol: Wheat seedlings of the variety Riband (for Zymoseptoria tritici trials) or variety Arina (for Puccinia recondite trials) were grown in a glasshouse until 14 d after seeding. At this time, such seedlings usually have a first leaf fully emerged (designated L1), a second leaf fully emerged (L2) and a third leaf (L3) that was partially emerged and in the process of development. Using a permanent pen, two dots were applied on the second leaf such as to generate three segments of roughly equal size: Segment A (at the base), segment B (middle part) and segment C (upper part of the leaf). A stock solution of the test compound was produced in DMSO at a concentration of 10′000 ppm. […] The diluted compound was applied to the middle segment of L2 using a conventional cotton stick; the cotton stick was soaked in the diluted compound and rubbed several times on the adaxial leaf surface between the two marks. 1 day later, the complete plant was inoculated with a fungal spore suspension using a paint brush and application of the spore suspension until before run-off.
For infection with Zymoseptoria tritici: The test plants were inoculated by spraying a spore suspension on them 1 day after application (1.5Mio spores per ml in water supplemented with 0.01% Tween®20). After an incubation period of 4 days at 22 °C/21 °C. (day/night) and 95% rh, the inoculated test plants were kept at 22 °C/21 °C (day/night) and 70% rh in a greenhouse. Efficacy was assessed by visual evaluation directly when an appropriate level of disease appears on untreated check plants (usually >80% disease cover at 16-19 days after inoculation).
The three segments of the leaf were evaluated individually.

Botryotinia fuckeliana = assay: Liquid culture, Botryotinia fuckeliana (Botrytis cinerea), Gray Mould, 3-4 days; type: cell-based
Protocol: (§1) Mycelia fragments or conidia suspensions of a fungus, prepared either freshly from liquid cultures of the fungus or from cryogenic storage, were directly mixed into nutrient broth.
(§2) A stock solution for compound of Formula I(a) and Formula I(b) was produced in DMSO (max. 10 mg/ml), which was diluted with water plus 0.025% Tween®20 to produce a 10× concentrated sample and 10 μl of this solution was pipetted into a microtiter plate (96-well format). The nutrient broth containing the fungal spores/mycelia fragments was then added to give an end concentration of the tested compound. The test plates were incubated in the dark at 24 °C and 96% rh. The inhibition of fungal growth was determined photometrically after 2-7 days, depending on the pathosystem, and percent antifungal activity relative to the untreated check was calculated.
(§3) The effect of the test compound (Formula I(a), I(b) and Lipopeptin A) was tested against the following fungi under the conditions as outlined above and specifically herein below:
Botryotinia fuckeliana (Botrytis cinerea)/Liquid Culture (Gray Mould)
Conidia of the fungus from cryogenic storage were directly mixed into nutrient broth (Vogels broth). The inhibition of growth is determined photometrically 3-4 days after application.

[1] = system: Puccinia recondita f. sp. tritici; assay: Leaf disc/segment test on wheat, Puccinia recondita f. sp. tritici (Brown Rust), 7-9 days after application; type: in vivo
Protocol: (§4) Leaf disks or leaf segments of various plant species were cut from plants grown in the greenhouse. The cut leaf disks, or segments were placed in multiwell plates (24-well format) onto water agar. The leaf disks were sprayed with a test solution before inoculation with the fungal spores. Compounds to be tested were prepared as DMSO solutions (max. 10 mg/ml) which were diluted to the appropriate concentration with water plus 0.025% Tween® 20 just before spraying. The inoculated leaf disks or segments were incubated under defined conditions (temperature, relative humidity, light, etc.) according to the respective test system. A single evaluation of disease level was carried out by visual evaluation 3-9 days days after inoculation, depending on the pathosystem as indicated below. Percent disease control relative to the untreated check leaf disks or segments was then calculated.
Puccinia recondita f. Sp. Tritici/Wheat/Leaf Disc (Brown Rust)
Wheat leaf segments cv. Kanzler were placed on agar in multiwell plates (24-well format) and sprayed with the formulated test compound diluted in water. The leaf disks were inoculated with a spore suspension of the fungus 1 day after application. The inoculated leaf segments were incubated at 19 °C and 75% rh under a light regime of 12 h light/12 h darkness in a climate cabinet and the activity of a compound was assessed as percent disease control compared to untreated when an appropriate level of disease damage appears in untreated check leaf segments (7-9 days after application).

Glomerella lagenarium = assay: Liquid culture, Glomerella lagenarium (Colletotrichum lagenarium), Anthracnose, 3-4 days; type: cell-based; settings: Colletotrichum orbiculare, read-out: % reduction fungal growth
Protocol: as §1, §2, §3
Glomerella lagenarium (Colletotrichum lagenarium)/Liquid Culture (Anthracnose)
Conidia of the fungus from cryogenic storage were directly mixed into nutrient broth (PDB potato dextrose broth). The inhibition of growth was measured photometrically 3-4 days after application.

several fungal species = assay: Leaf disc or leaf segment tests, summary over the fungi tested; type: in vivo; settings: up to; Tables 4 and 5
Protocol: as §4

Pyrenophora teres = assay: Leaf disc preventative test on barley, Pyrenophora teres (Net Blotch), 5-7 days after application; type: in vivo; settings: Table 5
Protocol: as §4
Pyrenophora teres/Barley/Leaf Disc Preventative (Net Blotch)
Barley leaf segments cv. Hasso were placed on agar in a multiwell plate (24-well format) and sprayed with the formulated test compound diluted in water. The leaf segments were inoculated with a spore suspension of the fungus 2 days after application. The inoculated leaf segments were incubated at 20 °C and 65% rh under a light regime of 12 h light/12 h darkness in a climate cabinet and the activity of a compound was assessed as disease control compared to untreated when an appropriate level of disease damage appears in untreated check leaf segments (5-7 days after application).

CC(C)CCCCCCCCCCC(=O)NC1C(=O)NC(CC(=O)O)C(=O)NC(C(O)CC(N)=O)C(=O)NC(CO)C(=O)N(C)C(CC(N)=O)C(=O)N(C)C(Cc2ccccc2)C(=O)NC(CCC(N)=O)C(=O)NC(CCC(=O)O)C(=O)OC1C (centres unmarked) [Formula I(a)] ({Tridecanoyl(12-Me)}-TD[X1]S[NMeN][NMeF]QE; ester 1-C; configuration not given here)
46%: % reduction of fungal growth (Zymoseptoria tritici; 200 ppm)
70%: % reduction fungal growth (Botryotinia fuckeliana; Table 3, 33 ppm) | % reduction fungal growth (Botryotinia fuckeliana; Table 3, 100 ppm)
35%: % reduction of fungal growth ([1]; Table 5, 22 ppm)
90%: % reduction of fungal growth ([1]; Table 4, 67 ppm) | % reduction of fungal growth ([1]; Table 5, 67 ppm) | inhibition of growth at 33 ppm (Glomerella lagenarium; Table 2)
100%: % reduction of fungal growth ([1]; Table 4, 200 ppm) | inhibition of growth at 100 ppm (Glomerella lagenarium; Table 2)
0%: % reduction of fungal growth (Zymoseptoria tritici; 20 ppm) | % reduction fungal growth (Botryotinia fuckeliana; Table 2, 0.41 ppm) | % reduction fungal growth (Botryotinia fuckeliana; Table 2, 1.2 ppm) | % reduction fungal growth (Botryotinia fuckeliana; Table 2, 3.7 ppm) | % reduction fungal growth (Botryotinia fuckeliana; Table 2, 11 ppm) | % reduction fungal growth (Botryotinia fuckeliana; Table 2, 33 ppm) | % reduction of fungal growth ([1]; Table 4, 0.82 ppm) | % reduction of fungal growth ([1]; Table 4, 2.5 ppm) | % reduction of fungal growth ([1]; Table 4, 7.4 ppm) | % reduction of fungal growth ([1]; Table 4, 22 ppm) | % reduction of fungal growth ([1]; Table 5, 0.82 ppm) | % reduction of fungal growth ([1]; Table 5, 2.5 ppm) | % reduction of fungal growth ([1]; Table 5, 7.4 ppm) | inhibition of growth at 0.41 ppm (Glomerella lagenarium; Table 2) | inhibition of growth at 1.2 ppm (Glomerella lagenarium; Table 2) | inhibition of growth at 3.7 ppm (Glomerella lagenarium; Table 2) | inhibition of growth at 0.41 ppm (Glomerella lagenarium; Table 3) | inhibition of growth at 1.2 ppm (Glomerella lagenarium; Table 3) | inhibition of growth at 3.7 ppm (Glomerella lagenarium; Table 3) | inhibition of growth at 11 ppm (Glomerella lagenarium; Table 3) | inhibition of growth at 33 ppm (Glomerella lagenarium; Table 3) | % reduction of fungal growth (Pyrenophora teres; 0.82 ppm) | % reduction of fungal growth (Pyrenophora teres; 2.5 ppm) | % reduction of fungal growth (Pyrenophora teres; 7.4 ppm) | % reduction of fungal growth (Pyrenophora teres; 22 ppm)
up to 70%: control on the treated area (middle segment) (Zymoseptoria tritici; up to, Table 6, Zymoseptoria tritici)
60%: % reduction of fungal growth (Pyrenophora teres; 67 ppm)
50%: % reduction fungal growth (Botryotinia fuckeliana; Table 2, 100 ppm) | % reduction fungal growth (Botryotinia fuckeliana; Table 3, 3.7 ppm) | % reduction fungal growth (Botryotinia fuckeliana; Table 3, 11 ppm) | inhibition of growth at 11 ppm (Glomerella lagenarium; Table 2) | inhibition of growth at 100 ppm (Glomerella lagenarium; Table 3)
80%: % reduction of fungal growth (Pyrenophora teres; 200 ppm)
95%: % reduction of fungal growth ([1]; Table 5, 200 ppm)
up to 95%: reduction of fungal growth (several fungal species)
